Data published in the NIST ThermoML archive (doi:10.1021/acs.jced.6b00867).
Numbers after ± are expanded uncertainties.

Assays:
[1] = 352.2 K; Liquid; Ebulliometric method (Recirculating still)
[2] = refractive index (Na D-line) (dimensionless); details: 101 kPa, Liquid, Standard Abbe refractometry
[3] = refractive index (Na D-line) (dimensionless); xn = mol fraction of the nth substance listed; details: 101 kPa, Liquid, Standard Abbe refractometry

O=CO [formic acid]
Details | vapor or sublimation pressure [kPa]
[1] | 51 ± 4

[2]
Details | refractive index
293.2 K | 1.3714 ± 0.0004
298.2 K | 1.3699 ± 0.0004

O=CO [formic acid] + CC1CCC(=O)O1
[3], x1 = 1
Details | refractive index
293.2 K | 1.3714 ± 0.0004
298.2 K | 1.3699 ± 0.0004

CC1CCC(=O)O1 (stereo not drawn) [γ-valerolactone] + O=CO
refractive index, [3]
Details | 293.2 K | 298.2 K
x2 = 0 | 1.4339 ± 0.0004 | 1.4316 ± 0.0004
x2 = 0.0697 | 1.4314 ± 0.0004 | 1.4292 ± 0.0004
x2 = 0.1233 | 1.4295 ± 0.0004 | 1.4272 ± 0.0004
x2 = 0.2013 | 1.4265 ± 0.0004 | 1.4245 ± 0.0004
x2 = 0.3394 | 1.421 ± 0.0004 | 1.4191 ± 0.0004
x2 = 0.4898 | 1.4138 ± 0.0004 | 1.4118 ± 0.0004
x2 = 0.593 | 1.4078 ± 0.0004 | 1.4058 ± 0.0004
x2 = 0.6258 | 1.4056 ± 0.0004 | 1.4036 ± 0.0004
x2 = 0.6744 | 1.4021 ± 0.0004 | 1.4002 ± 0.0004
x2 = 0.7799 | 1.3941 ± 0.0004 | 1.3921 ± 0.0004
x2 = 0.8539 | 1.3875 ± 0.0004 | 1.3856 ± 0.0004
x2 = 0.8902 | 1.3839 ± 0.0004 | 1.3821 ± 0.0004
x2 = 0.9828 | 1.3739 ± 0.0004 | 1.3719 ± 0.0004

CC1CCC(=O)O1 (stereo not drawn) [γ-valerolactone]
[2]
Details | refractive index
293.2 K | 1.4339 ± 0.0004
298.2 K | 1.4316 ± 0.0004
